Experiments:
Assay in all cases: Test G preemergence/postemergence greenhouse plant response rating 0 to 100
broadleaf signalgrass = assay type: in vivo, Brachiaria plantaginea; settings: 0 to 100 scale
Excerpt: (§1) Seeds, rhizomes, or plant parts of alfalfa (Medicago ativa), annual bluegrass (Poa annua), bermudagrass (Cynodon dactylon), broadleaf signalgrass (Brachiaria plantaginea), common purslane (Portulaca oleracea), common ragweed (Ambrosia elatior), […] (Paspalum dilatatum), goosegrass (Eleusine indica), guineagrass (Panicum maximum), […] exaltata), johnsongrass (Sorghum halepense), large crabgrass (Digitaria sanguinalis), peanut (Arachis hypoagaea), pitted morningglory (Ipomoea lacunosa), purple nutsedge (Cyperus rotundus), sandbur (Cenchrus echinatus), smooth crabgrass (Digitaria ischaemum) and yellow nutsedge (Cyperus esculentus) were planted into greenhouse pots containing greenhouse planting medium. Each pot contained only one plant species. The test compound was dissolved in a non-phytotoxic solvent and applied preemergence and/or postemergence to the plants. Preemergence applications were made within one day of planting the seeds or plant parts. Postemergence applications were applied when the plants were in the two to four leaf stage (three to twenty cm). Test chemicals were dissolved in a non-phytotoxic solvent and applied preemergence and postemergence to the plants. Untreated control plants and treated plants were placed in the greenhouse and visually evaluated for injury at 13 to 21 days after herbicide application. […] A dash (-) response indicates no test result.

annual bluegrass = assay type: in vivo, Poa annua; settings: 0 to 100 scale
Excerpt: as §1

common purslane = assay type: in vivo, Portulaca oleracea; settings: 0 to 100 scale
Excerpt: as §1

yellow nutsedge = assay type: in vivo, Cyperus esculentus; settings: Rate 125 g/ha, 0 to 100 scale
Excerpt: as §1

guineagrass = assay type: in vivo, Panicum maximum; settings: 0 to 100 scale
Excerpt: as §1

large crabgrass = assay type: in vivo, Digitaria sanguinalis; settings: 0 to 100 scale
Excerpt: as §1

pitted morningglory = assay type: in vivo, Ipomoea lacunosa; settings: 0 to 100 scale
Excerpt: as §1

alfalfa = assay type: in vivo, Medicago ativa; settings: 0 to 100 scale
Excerpt: as §1

goosegrass = assay type: in vivo, Eleusine indica; settings: 0 to 100 scale
Excerpt: as §1

itchgrass = assay type: in vivo, Rottboellia exaltata; settings: 0 to 100 scale
Excerpt: as §1

dallisgrass = assay type: in vivo, Paspalum dilatatum; settings: 0 to 100 scale
Excerpt: as §1

peanut = assay type: in vivo, Arachis hypoagaea; settings: 0 to 100 scale
Excerpt: as §1

johnsongrass = assay type: in vivo, Sorghum halepense; settings: 0 to 100 scale
Excerpt: as §1

bermudagrass = assay type: in vivo, Cynodon dactylon; settings: 0 to 100 scale
Excerpt: as §1

purple nutsedge = assay type: in vivo, Cyperus rotundus; settings: Rate 125 g/ha, 0 to 100 scale
Excerpt: as §1

common ragweed = assay type: in vivo, Ambrosia elatior; settings: 0 to 100 scale
Excerpt: as §1

sandbur = assay type: in vivo, Cenchrus echinatus; settings: 0 to 100 scale
Excerpt: as §1

## CC(C)N1C(=O)COc2cc(F)c(-c3nn4c(c3Cl)CCCC4)cc21 [Compound 31]
Broadleaf signalgrass; POSTEMERGENCE, Rate 125 g/ha
  Plant response rating, Brdlf Sgnlgrass: 0
Broadleaf signalgrass; POSTEMERGENCE, Rate 250 g/ha
  Plant response rating, Brdlf Sgnlgrass: 0
Broadleaf signalgrass; PREEMERGENCE, Rate 125 g/ha
  Plant response rating, Brdlf Sgnlgrass: 0
Broadleaf signalgrass; PREEMERGENCE, Rate 250 g/ha
  Plant response rating, Brdlf Sgnlgrass: 0
Annual bluegrass; POSTEMERGENCE, Rate 125 g/ha
  Plant response rating, Ann Bluegrass: 0
Annual bluegrass; POSTEMERGENCE, Rate 250 g/ha
  Plant response rating, Ann Bluegrass: 0
Annual bluegrass; PREEMERGENCE, Rate 125 g/ha
  Plant response rating, Ann Bluegrass: 0
Annual bluegrass; PREEMERGENCE, Rate 250 g/ha
  Plant response rating, Ann Bluegrass: 0
Common purslane; POSTEMERGENCE, Rate 125 g/ha
  Plant response rating, Cmn Purslane: 100
Common purslane; POSTEMERGENCE, Rate 250 g/ha
  Plant response rating, Cmn Purslane: 80
Common purslane; PREEMERGENCE, Rate 125 g/ha
  Plant response rating, Cmn Purslane: 0
Common purslane; PREEMERGENCE, Rate 250 g/ha
  Plant response rating, Cmn Purslane: 100
Yellow nutsedge; POSTEMERGENCE
  Plant response rating, Yellow Nutsedge: 0
Yellow nutsedge; PREEMERGENCE
  Plant response rating, Yellow Nutsedge: 0
guineagrass; POSTEMERGENCE, Rate 125 g/ha
  Plant response rating, Guineagrass: 0
guineagrass; POSTEMERGENCE, Rate 250 g/ha
  Plant response rating, Guineagrass: 0
guineagrass; PREEMERGENCE, Rate 125 g/ha
  Plant response rating, Guineagrass: 0
guineagrass; PREEMERGENCE, Rate 250 g/ha
  Plant response rating, Guineagrass: 100
Large crabgrass; POSTEMERGENCE, Rate 125 g/ha
  Plant response rating, Large Crabgrass: 0
Large crabgrass; POSTEMERGENCE, Rate 250 g/ha
  Plant response rating, Large Crabgrass: 0
Large crabgrass; PREEMERGENCE, Rate 125 g/ha
  Plant response rating, Large Crabgrass: 0
Large crabgrass; PREEMERGENCE, Rate 250 g/ha
  Plant response rating, Large Crabgrass: 0
Pitted morningglory; POSTEMERGENCE, Rate 125 g/ha
  Plant response rating, Pit Morninglory: 50
Pitted morningglory; POSTEMERGENCE, Rate 250 g/ha
  Plant response rating, Pit Morninglory: 50
Pitted morningglory; PREEMERGENCE, Rate 125 g/ha
  Plant response rating, Pit Morninglory: 0
Pitted morningglory; PREEMERGENCE, Rate 250 g/ha
  Plant response rating, Pit Morninglory: 0
alfalfa; POSTEMERGENCE, Rate 125 g/ha
  Plant response rating, Alfalfa Var.: 0
alfalfa; POSTEMERGENCE, Rate 250 g/ha
  Plant response rating, Alfalfa Var.: 10
alfalfa; PREEMERGENCE, Rate 125 g/ha
  Plant response rating, Alfalfa Var.: 0
alfalfa; PREEMERGENCE, Rate 250 g/ha
  Plant response rating, Alfalfa Var.: 30
goosegrass; POSTEMERGENCE, Rate 125 g/ha
  Plant response rating, Goosegrass: 0
goosegrass; POSTEMERGENCE, Rate 250 g/ha
  Plant response rating, Goosegrass: 0
goosegrass; PREEMERGENCE, Rate 125 g/ha
  Plant response rating, Goosegrass: 0
goosegrass; PREEMERGENCE, Rate 250 g/ha
  Plant response rating, Goosegrass: 0
itchgrass; POSTEMERGENCE, Rate 125 g/ha
  Plant response rating, Itchgrass: 0
itchgrass; POSTEMERGENCE, Rate 250 g/ha
  Plant response rating, Itchgrass: 20
itchgrass; PREEMERGENCE, Rate 125 g/ha
  Plant response rating, Itchgrass: 0
itchgrass; PREEMERGENCE, Rate 250 g/ha
  Plant response rating, Itchgrass: 70
dallisgrass; POSTEMERGENCE, Rate 125 g/ha
  Plant response rating, Dallisgrass: 0
dallisgrass; POSTEMERGENCE, Rate 250 g/ha
  Plant response rating, Dallisgrass: 0
dallisgrass; PREEMERGENCE, Rate 125 g/ha
  Plant response rating, Dallisgrass: 0
dallisgrass; PREEMERGENCE, Rate 250 g/ha
  Plant response rating, Dallisgrass: 0
peanut; POSTEMERGENCE, Rate 125 g/ha
  Plant response rating, Peanuts: 0
peanut; POSTEMERGENCE, Rate 250 g/ha
  Plant response rating, Peanuts: 0
peanut; PREEMERGENCE, Rate 125 g/ha
  Plant response rating, Peanuts: 0
peanut; PREEMERGENCE, Rate 250 g/ha
  Plant response rating, Peanuts: 0
johnsongrass; POSTEMERGENCE, Rate 125 g/ha
  Plant response rating, Johnsongrass: 0
johnsongrass; POSTEMERGENCE, Rate 250 g/ha
  Plant response rating, Johnsongrass: 0
johnsongrass; PREEMERGENCE, Rate 125 g/ha
  Plant response rating, Johnsongrass: 0
johnsongrass; PREEMERGENCE, Rate 250 g/ha
  Plant response rating, Johnsongrass: 0
bermudagrass; POSTEMERGENCE, Rate 125 g/ha
  Plant response rating, Bermudagrass: 0
bermudagrass; POSTEMERGENCE, Rate 250 g/ha
  Plant response rating, Bermudagrass: 0
bermudagrass; PREEMERGENCE, Rate 125 g/ha
  Plant response rating, Bermudagrass: 0
bermudagrass; PREEMERGENCE, Rate 250 g/ha
  Plant response rating, Bermudagrass: 0
Purple nutsedge; POSTEMERGENCE
  Plant response rating, Purple Nutsedge: 10
Purple nutsedge; PREEMERGENCE
  Plant response rating, Purple Nutsedge: 0
Common ragweed; POSTEMERGENCE, Rate 125 g/ha
  Plant response rating, Cmn Ragweed: 100
Common ragweed; POSTEMERGENCE, Rate 250 g/ha
  Plant response rating, Cmn Ragweed: 100
Common ragweed; PREEMERGENCE, Rate 125 g/ha
  Plant response rating, Cmn Ragweed: 0
Common ragweed; PREEMERGENCE, Rate 250 g/ha
  Plant response rating, Cmn Ragweed: 70
sandbur; POSTEMERGENCE, Rate 125 g/ha
  Plant response rating, S. Sandbur: 0
sandbur; POSTEMERGENCE, Rate 250 g/ha
  Plant response rating, S. Sandbur: 0
sandbur; PREEMERGENCE, Rate 125 g/ha
  Plant response rating, S. Sandbur: 0
sandbur; PREEMERGENCE, Rate 250 g/ha
  Plant response rating, S. Sandbur: 0
